According to patent US20090233999A1, “COMPOSITIONS AND THERAPEUTIC METHODS INVOLVING ISOFLAVONES AND ANALOGUES THEREOF” (NOVOGEN RESEARCH PTY LTD, priority 1999, published 2009):

Key:
NFκB = NFκB promoter activity, beta-lactamase reporter THP-1 cells stimulated with TNFα; format: cell-based; details: 30 μM; TNFα-stimulated THP-1 cells
Experimental: The assay utilised a genetically modified THP-1 cell line containing a stably-transfected beta-lactamase reporter gene under control of the NFkB response element and GeneBLAzer® beta-lactamase technology (Invitrogen Corp). The cells respond to stimulation with TNFα, causing activation of the NFκB signaling pathway. Co-incubation of cells with TNFα and test material allows quantitative determination of the ability of test material to inhibit TNFa-stimulated beta-lactamase production. An inflammatory index was calculated as the ratio of beta-lactamase product to beta-lactamase substrate.
THP-1 cells were seeded into wells of a 96-well plate in the presence of RPMI 1640 medium. TNFα was added to each well to give a final concentration of 7.5 ng/ml and dialyzed bovine serum was added. Compounds dissolved in DMSO were then added. Each plate also contained no-cell controls, no-serum controls and serum controls. Plates were incubated for 5 h at 37° C. to allow for NFκB-stimulated beta-lactamase production. LiveBLAzer™ FRET B/G Substrate (CCF4-AM) substrate was then added to assay. Once CCFA-AM enters a cell, it is converted to negatively charged CCF4 by endogenous esterases. Excitation of this substrate at 409 nm leads to efficient FRET between the coumarin and fluorescein moieties, resulting in a green fluorescence detectable at 530 nm. The presence of beta-lactamase leads to cleavage of CCF4 and results in a loss of FRET, resulting in a robust blue fluorescent signal detectable at 460 nm. Thus, activity of beta-lactamase (a marker of NFκB-promoter activity) is measured as a product to substrate ratio (blue/green fluorescence ratio: 460 nm/530 nm).

[1] = system: COX (PGE2 and TXB2 synthesis); assay: LPS-induced prostanoid (PGE2, TXB2) synthesis in human monocytes; format: cell-based; details: LPS 200 ng/mL, 18 hrs, data at 10 μM
Experimental: Human peripheral blood monocytes were isolated from buffy coats by lymphoprep gradient separation followed by counter-current centrifugal elutriation. Test compounds were dissolved in DMSO and added to fresh monocytes to achieve concentrations of 0, 10 and 100 μM. After 30 min, lipopolysaccharide (LPS) was added to achieve a final concentration of 200 ng/mL. After incubation for 18 hrs at 37° C. in 5% CO2, supernatants were removed and PGE2 and TXB2 (the stable hydrolysis product of TXA2) production were measured by radioimmunoassay (RIA). ANOVA followed by Newman-Keuls multiple comparisons test was used to examine differences between doses and the control values.

VCAM-1 = assay: TNFα-induced VCAM expression on HAECs (ELISA); format: cell-based, human; details: 10 μM
Experimental: Inhibition of TNFα-stimulated endothelial cell activation by compounds was assessed by measuring surface expression of cell adhesion molecules with an ELISA. Human arterial endothelial cells (HAECs) in growth medium (Cell Applications Inc.) were seeded into 96-well plates at a density of 10,000 cells per well. Plates were incubated overnight at 37° C. in a humidified incubator to allow for cells to become confluent. On the morning of the experiment, TNFα (10 μl, 2 ng/ml) was added to each well, which contained 100 μl of medium. Compounds were diluted in DMSO-containing medium (2.5% DMSO) to give a compound concentration of 100 and 300 μM. Compounds were added to wells so that final concentrations were 10 and 30 μM. DMSO-containing medium alone was added to zero concentration control wells. All samples were measured in quadruplicate (4 wells per treatment).
After incubation with compound for 4 hours, medium was removed and cells were probed with either non-specific IgG or specific mouse antibodies against VCAM, ICAM or E-selectin (BD Biosciences—0.1 μg in 100 μL buffered saline with 10% heat-inactivated human serum). Adhesion molecule expression was detected by addition of sheep anti-mouse antibody/horseradish peroxidase conjugate. Plates were allowed to stand for 30 minutes—monolayers were then washed, and sheep anti-mouse antibody/horseradish peroxidase conjugate (1:500 in 100 μL HBSS with 10% heat-inactivated human serum and 0.05% Tween 20) was added and left for 30 minutes. After further washing, 150 μL ABTS substrate (Kirkegaard and Perry Laboratories) was added to each well and allowed to develop for 15 minutes. Optical density was measured at 405 nm with an ELISA reader (Titertek Multiscan, Flow Laboratories).

TNFα = TNFα production by murine splenocytes; format: cell-based, mouse; details: 10 μM; LPS
Experimental: Male Skh-1 (hairless) mice, approximately six weeks old were killed by cervical dislocation. Single cell suspensions were made from the spleen and erythrocytes were lysed in buffer (0.14M NH4Cl, 17 mM Tris, pH 7.2). The remaining splenocytes were cultured in RPMI-1640 (Gibco) supplemented with 10% (v:v) FBS, 2 mM L-glutamine, pen/strep and 50 μM 2-mercaptoethanol. Splenocytes were added to quadruplicate wells containing either the T cell mitogen concanavalin A (Con A, Sigma-Aldrich—0. 4 μg/well), the B-cell mitogen LPS (Sigma-Aldrich—1 μg/well) or no mitogen, as well as test compound at a concentration of 10 μM in DMSO. Samples were analysed after a 3 day incubation at 37° C. in 5% CO2 in air. Cell viability was assessed by adding MTT to each well, incubating for a further 4 hrs and then developing colour with 0.04N HCl in isopropanol. Supernatant samples were frozen at −80° C. and IL-6, IFN-γ and TNFα were detected in triplicate using ELISA kits (BD Biosciences).

[2] = system: Skh:hr-1 albino mice (UV-induced skin thickening); assay: Murine model of UV irradiation-induced skin oedema; format: in vivo, mouse; details: for Change in skin thickness (mean ± SD, ×0.01 mm): 0.2 ml of 20 μM topical ×3
Source text: Groups of 4-5 female Skh:hr-1 albino mice were irradiated with 1×3 MED (minimal erythemal dose) of solar simulated UV radiation, provided by a planar bank of 6 UVA tube (Hitachi 40W F40T 10/BL, black light) and one UVB tube (Philips TL 40W/12RS) with radiation filtered through a sheet of 0.125 mm cellulose acetate (Eastman Chemical Products, Kingport, Term, USA) to give 2.96×10-4 W/cm2 UVA and 1.59×10-5 W/cm2 UVB. The distance of the UV lamp from the irradiance table surface was approximately 20 cm and temperature was controlled with an electric fan. During irradiation, the cages were rotated below the lights to reduce the variation in radiation intensity in different positions.
Either test compound (0.2 ml of a 20 μM solution) or vehicle (propylene glycol/ethanol (EtOH)/water 1:2:1) was applied to the irradiated dorsal skin at 30 min, 2 h and 4 h post-irradiation. Dorsal skin fold measurements were made with a spring micrometer prior to and at 24 hr and 48 h post-UV exposure. The difference in skin thickness pre- and post-exposure to UVR was calculated for each mouse, and the differences examined between test compound and vehicle control were analysed using an unpaired two-tailed t test.
The data are presented in tables, as well as graphically as the mean percentage inhibition of skin fold thickness, calculated as [1−[(mean % change skin thickness of test group/mean % change skin thickness of control group)×100]].

[3] = 24 hrs post-irradiation, vehicle 78 ± 23
[4] = 48 hrs post-irradiation, vehicle 147 ± 37

SMILES	NFκB promoter activity (NFκB)	COX inhibitory activity (inhibition of PGE2 and TXA2 production) [1]	TNFα-induced VCAM expression (VCAM-1)	TNFα synthesis by B cells (TNFα)	Change in skin thickness (mean ± SD, ×0.01 mm) [2, 3]	Change in skin thickness (mean ± SD, ×0.01 mm) [2, 4]	UV-induced inflammation at 24 hrs ([2]; 24 hrs)	UV-induced inflammation at 48 hrs ([2]; 48 hrs)
COc1ccc(C2=Cc3ccc(O)cc3OC2)cc1OC [Cpd. 18, 7-Hydroxy-3′,4′-dimethoxyisoflav-3-ene]	significantly inhibited	significant COX inhibitory activity	significantly inhibited	–	–	–	–	–
Cc1c(O)ccc2c1OCC(c1cccc(O)c1)=C2 [Cpd. 14, 3′,7-Dihydroxy-8-methylisoflav-3-ene]	significantly inhibited	significant COX inhibitory activity	–	induced	77 ± 5.6 ×0.01 mm	137 ± 16 ×0.01 mm	–	–
Oc1ccc(C2=Cc3ccc(O)c(Br)c3OC2)cc1 [Cpd. 20, 4′,7-Dihydroxy-8-bromoisoflav-3-ene]	significantly inhibited	significant COX inhibitory activity	significantly inhibited	induced	38 ± 4 ×0.01 mm	123 ± 39 ×0.01 mm	significantly inhibited	–
Oc1ccc2c(c1)OCC(c1ccc(Br)cc1)=C2 [Cpd. 21, 4′-Bromo-7-hydroxyisoflav-3-ene]	–	–	–	induced	–	–	–	–
COc1ccc(C2=Cc3ccc(O)c(C)c3OC2)cc1OC [Cpd. 19, 7-Hydroxy-3′,4′-dimethoxy-8-methylisoflav-3-ene]	significantly inhibited	significant COX inhibitory activity	significantly inhibited	inhibited	63 ± 8.1 ×0.01 mm	96 ± 5 ×0.01 mm	–	significantly inhibited
COc1cccc(C2=Cc3ccc(O)cc3OC2)c1 [Cpd. 16, 7-Hydroxy-3′-methoxyisoflav-3-ene]	–	significant COX inhibitory activity	intermediate activity	induced	61 ± 13 ×0.01 mm	111 ± 15 ×0.01 mm	–	–
